Results from patent publication US20120135923A1, “Use of Melanocortins to Treat Dyslipidemia” (IPSEN PHARMA, S.A.S., priority 2009, published 2012).
“Also recorded” adds a separate entry of the source.

Tests used:
obese Zucker rats [1] = assay: Serum triglycerides, cholesterol and free fatty acids after 7 day sc infusion; type: in vivo, rat; conditions: 50 and 500 nmole/kg/day sc infusion
Experimental: (§1) The dosage forms were prepared prior to the start of the experiment and used to fill the pumps under sterile conditions. Pumps were primed overnight at 37° C. in sterile saline and implanted on the starting day of the experiment.
(§2) Three groups of eight obese male Zucker rats (350-400 g) were housed in individual cages and maintained under 12:12 hour light:dark conditions with both food (Harlan Teklad Sterilized Rodent Diet LM-485) and water available ad libitum.
(§3) On the morning of day 1, the rats were anesthetized using chlorohydrate anesthetic and implanted with a sub-cutaneous infusion pump (Alzet® 2002) just under the skin. […] Individual body weight and food and water consumption were measured daily at 0800 hours for 7 days.
(§4) On day 7 a right atrial cannula was implanted in the jugular vein under cholorohydrate anesthesia. The animals were fasted overnight and an intravenous (iv) glucose tolerance test was performed. Glucose (1 g/kg) was injected at time 0 and blood samples were taken via the cannula at 0, 2.5, 5, 10, 20 and 40 minutes post-injection. Plasma was collected and assayed for glucose (Glucose (Trinder) Assay; Diagnostic Chemicals Limited, Charlottetown, P.E.I., Canada; Cat #220-32) and insulin (Mercodia Rat Insulin ELISA; Mercodia, Uppsala, Sweden; ALPCO 10-1124-10) content. At the conclusion of the glucose tolerance test and additional serum samples were collected and assayed for triglycerides (Triglyceride L-Type TG H kit: Wako Diagnostics, Richmond, Va.), cholesterol (Cholesterol E assay kit: Wako Diagnostics, Richmond, Va.) and free fatty acids (Fatty Acid HR series NEFA-HR2 kit: Wako Diagnostics, Richmond, Va.).

hMC5-R [2] = biological target: T1, hMC5-R (Homo sapiens, UniProt P33032); assay: cyclic AMP bioassay (ECL) in CHO-K1 cells; type: cell-based
T1 construct: expressed in transfected cells; host or cells: CHO-K1

obese Zucker rats [3] = assay: Body weight and food intake, 7 day sc infusion; type: in vivo, rat; conditions: for decrease in body weight gain: day 7, vs vehicle; for decrease in food intake: end of 7 day treatment
Experimental: as §1
The Zucker rats are obese due to a spontaneous mutation in the […].
as §2, §3

obese Zucker rats [4] = assay: Intravenous glucose tolerance test after 7 day sc infusion; type: in vivo, rat
Experimental: as §1, §2, §3, §4

hMC5-R [5] = biological target: T1, hMC5-R; assay: Radioligand binding assay, [125I]-NDP-α-MSH competition, CHO-K1 membranes; conditions: Ki hMC5-R, Table 5

T1 sequence (P33032 whole entry): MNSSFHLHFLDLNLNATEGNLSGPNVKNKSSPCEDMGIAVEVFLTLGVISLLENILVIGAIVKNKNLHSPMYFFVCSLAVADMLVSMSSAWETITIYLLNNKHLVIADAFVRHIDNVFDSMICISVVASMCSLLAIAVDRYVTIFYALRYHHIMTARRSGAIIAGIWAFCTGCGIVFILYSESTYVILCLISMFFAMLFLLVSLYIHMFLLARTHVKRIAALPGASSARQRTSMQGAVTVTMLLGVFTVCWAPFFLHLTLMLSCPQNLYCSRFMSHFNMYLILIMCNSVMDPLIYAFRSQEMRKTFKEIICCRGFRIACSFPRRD

## CC(=O)N[C@@H](CCCNC(=N)N)C(=O)N[C@H]1CSSC[C@@H](C(N)=O)NC(=O)[C@H](Cc2c[nH]c3ccccc23)NC(=O)[C@H](CCCNC(=N)N)NC(=O)[C@@H](Cc2ccccc2)NC(=O)[C@H](Cc2c[nH]cn2)NC(=O)[C@@H](C)NC1=O [Compound A, Ac-Arg-c(Cys-D-Ala-His-D-Phe-Arg-Trp-Cys)-NH2]
Obese Zucker rats [1]
  serum cholesterol: Dose-related decrease
  serum free fatty acids: dose-related decreases; also recorded: Decrease
  serum triglycerides: Dose-related decrease
hMC5-R [2]
  EC50: 1630 nM
Obese Zucker rats [3]; 50 nmole/kg/day sc infusion
  decrease in body weight gain: 35 g
  decrease in food intake: 60 g
Obese Zucker rats [3]; 500 nmole/kg/day sc infusion
  decrease in body weight gain: 60 g
  decrease in food intake: 100 g
Obese Zucker rats [4]; 500 nmole/kg/day sc infusion, fasted overnight
  basal fasted plasma glucose: decreased
Obese Zucker rats [4]; 50 and 500 nmole/kg/day, glucose 1 g/kg iv
  plasma glucose levels after a glucose challenge: decreased
Obese Zucker rats [4]; 7 day infusion, glucose tolerance test
  amount of insulin required to clear the glucose challenge: decreased
hMC5-R [5]
  Ki: 430 nM
